From patent publication US20140187594A1, “DIPHENYL ETHER COMPOUNDS FOR THE TREATMENT OF LIVER, LUNG DISORDERS, DIABETIC COMPLICATIONS AND CARDIOVASCULAR DISEASES” (ORCHID CHEMICALS AND PHARMACEUTICALS LTD, priority 2010, published 2014)

What was measured:
TNF-α = experiment: LPS induced serum TNF-α in vivo; parameters: species or system mice; settings: 50 mg/kg/day oral, 10 days, LPS 400 μg/kg IP, FIG. 39
Excerpt: Based on the results obtained in the in-vitro studies, it can be concluded that Compounds A, B and C are moderately potent inhibitors of Aldose Reductase. […] At the end of the assay, cell lysates were probed with anti iNOS antibody. Compound of formula (A) inhibits the iNOS production in these cells (FIG. 38). […] Since iNOS is implicated in the pathology of diabetic complications, it is anticipated that Compound of formula (A) will have a protective effect in the development of neovascularization contributed by elevated iNOS. Inhibits LPS induced TNF-α and IL-6 Inhibition In Vivo: This study was undertaken when the mice are at 10-11 weeks in age. On Day 0 their body weights were measured and they were assigned to two groups of 6 mice each to get similar average group body weights. They were orally administered with either vehicle (deionized water, Group 1) or Compound of formula (A) (50 mg/kg; Group 2) daily between 9:30 and 10:30 AM for 10 days. The body weights were measured on day 3, 7 and 10 of the study before administration of vehicle or drug. On Day 10, the mice were administered LPS at 400 μg/kg, IP. After 1 hour they were orally administered with either vehicle or Compound of formula (A). […]
Serum TNF-α concentration for each group of mice is determined using the Quantikine. […] The optical density of each well was read at 450 nm using the Microplate Reader (FIG. 39).

STZ induced diabetic rat = experiment: Lenticular degeneration in STZ induced type I diabetic model; type: in vivo, Sprague Dawley rats; settings: 100 mg/kg for 2 months, FIG. 41
Method: The animal model was developed by injecting STZ to Sprague Dawley rats and kept for 10 weeks to develop diabetic complications. Initially animals were in hyperglycemic and chronically, developed several feature of diabetes and diabetic complications, which simulates human diabetes and complications. These features were treated as mentioned below. Forty male Sprague Dawley rats aged 6-8 weeks, body weight range between 150-190 g was used for this study. The animals were divided into two groups. First group (n=10) was treated as a normal control injected with normal saline and the second group (n=30) was treated with STZ (50 mg/kg, i.v.), (Sigma. USA). Body weight was recorded every week and blood glucose every month using glucometer (Contour TS, Bayer Healthcare Ltd.). Every week eyes were examined for cataractous changes. After 10 weeks of diabetes induction animals were grouped based on blood glucose levels and the severity of cataract. The first group served as normal control (n=10). The diabetic animals with cataract were divided into two groups, second group served as disease control (n=9) and third group was treated with compound of formula (A) (n=10) at 100 mg/kg dose for 2 months. At the last day of experiment animals were kept for 12 hours fasting, next day blood was collected, plasma separated and used for biochemical analysis. […] Data Analysis: The values are expressed as Mean±SE. […]

HC-HF diet fed Hamsters = experiment: HC-HF diet fed dyslipidemic hamsters; type: in vivo, Golden Syrian hamsters; settings: 28 days
Method: Dyslipidemia in hamsters were developed by feeding supranutritional diet with fructose liquid (10%) which simulates features of dyslipidemia in human. These features were treated as mentioned below. Thirty male Golden Syrian hamsters aged 14-16 weeks, body weight ranges between 100-160 g were used for this study. Animals were divided into two groups. First group (n=7) was treated as a normal control and was fed with chow feed (Nutri Lab® Rodent, Tetragon Chemie Pvt. Ltd., Bangalore) and the second group (n=23) was fed with HC-HF diet (in-house made), the composition of which were Corn oil 11.50%, Coconut oil 11.50%, Cholesterol 0.50%, Sodium cholate 0.25% and Nutri Lab® feed 76.25% and animals were provided with 10% fructose in the drinking water. […] During this period, animal body weight was recorded daily. […]
The dyslipidemic model was developed in the protocol as mentioned in experimental 4. […] During this period, animal body weight was recorded daily. […]
The parameters like Glucose, ALT, AST, TC, TG (Clinical chemistry analyzer Erba XL 300), insulin (Linco®-CA, Product code: EZRMI-13K) and TNFα (GE Healthcare, Amersham, UK. Product code: RPN2718) were measured using commercially available kits. NEFA was measured in serum using commercially available NEFA C kit (Product code No: 279-75401, Wako pure chemical industries ltd., Japan).

For `COC(=O)[C@@H](N)Cc1ccc(Oc2ccc(CC3SC(=O)NC3=O)cc2)cc1` (stereo partly drawn) [Compound of formula (A), Methyl(2S)-2-amino-3-(4-{4-[(2,4-dioxo-1,3-thiazolidin-5-yl)methyl]phenoxy}phenyl)propanoate], the “Serum TNF-α level” value (TNF-α) was “reduction in TNF-α”, the lenticular degeneration (STZ induced diabetic rat) was “significant improvement in lenticular degeneration” and the NEFA (HC-HF diet fed Hamsters; 30 and 100 mg/kg p.o., FIG. 15) was “significant reduction”. For the same compound, the “plasma TG” value (HC-HF diet fed Hamsters; (A) 30 and 100 mg/kg, disodium salt of (C) 10 and 30 mg/kg p.o., FIGS. 14 & 29) was “significant reduction”.
